Measured values reported in patent US10220096B2, “Injectable and stable hydrogels with dynamic properties modulated by biocompatible catalysts” (The Board of Trustees of the Leland Stanford Junior …, priority 2016, dated 2019).

Experiments:
[1] = Kinetic measurements on hydrazone exchange (model reaction, HPLC); conditions: for k1, rate of hydrazone formation / k−1, rate of hydrazone cleavage: PBS pH about 7.4, about 37° C.
Protocol: 2-(aminomethyl)benzimidazole (1 in FIG. 2) is an efficient catalyst to accelerate hydrazone formation owing to facilitated intramolecular proton transfer in the transition state. The rates for hydrazone formation (k1) and cleavage (k−1) in the presence of 1 were measured using model reactions between hydrazine and aldehyde and modeled for a reversible second-order reaction (FIG. 8), and the equilibrium constant (Keq) was calculated from these rate constants. […] The gelation time of the HA-hydrazone hydrogels was dramatically shortened in the presence of 1. […] In the presence of about 25 mM of 1, gelation occurred in less than about 60 s and reached a final plateau shear modulus of about 800 Pa in about 5 min (FIG. 3b). Increasing the catalyst loading to about 100 mM further shortened the time to reach equilibrium to about 3 min (FIG. 3b). As shown in the frequency sweep experiment (FIG. 3c), stable gels were formed with a plateau storage modulus (G′) of about 1 kPa, which is more than an order of magnitude higher than the loss modulus (G″). […] In contrast, altering the HA polymer composition from about 1 to about 4 wt. % increased the plateau modulus (FIG. 3c). […] The rate of stress relaxation under constant strain was quantified by the time for the initially measured stress to relax to half of its original value, τ1/2. […] Accelerated hydrazone exchange by an incorporated catalyst also allowed these hydrogels to be readily remolded macroscopically (FIG. 9), facilitating their injection and re-processing. […] Therefore, the design provides a strategy to tune the modulus and rate of stress relaxation, two important mechanical properties for dynamic hydrogel materials, independently and continuously by polymer concentration and catalyst concentration, respectively.
The equilibrium constant (Keq) and rate constants for hydrazone formation (k1) and cleavage (k−1) between aldehyde S1 and hydrazine S3 as model compounds with different concentrations of catalyst 1 were measured by HPLC. S3 was synthesized by coupling N-(2-aminoethyl)-4-amino-1,8-naphthalimide with hydrazine using carbodiimide chemistry. About 2 mM stock solutions of hydrazine and aldehyde were prepared in a PBS buffer (1×, pH of about 7.4). An about 250 mM stock solution of catalyst 1 was prepared in PBS as described in the previous sections.
For the reactions performed in the absence of catalyst, about 10 μL of hydrazine and about 10 μL of aldehyde stock solutions were added to about 980 μL PBS buffer (1×, pH of about 7.4). For the reactions performed in the presence of catalyst 1, the appropriate amount of catalyst 1, hydrazine, and aldehyde were sequentially added to PBS buffer (1×, pH of about 7.4) from their stock solutions, maintaining the same concentrations for hydrazine and aldehyde as those without a catalyst. The reactions were performed at about 37° C. in a water bath and followed using HPLC with detection at about 420 nm absorption (HPLC conditions: XBridge 10 μm C18 column; about 40% acetonitrile in PBS buffer (pH of about 7) isocratic elution in about 7 min at a flow rate of about 0.34 mL/min. The concentrations and conversions were calculated from the integrals of the HPLC signals. The kinetic data of hydrazone formation were fitted to a kinetic model for 2nd order reactions using Matlab (FIG. 8).
Conditions: about 137 mM NaCl, about 2.7 mM KCl, about 12 mM phosphate, pH of about 7.4 buffer, about 37° C.

[2] = Rheological tests of HA-hydrazone hydrogels (time sweep, frequency sweep, stress relaxation); format: physicochemical; conditions: for τ1/2, time for stress to relax to half of its original value: about 10% strain
Protocol: HA-hydrazine and HA-aldehyde were first solubilized in PBS (1×, pH of about 7.4) at 5 wt. % respectively. Catalyst 1 and 2 were dissolved in PBS (1×, pH of about 7.4) and adjusted pH to about 7.4 at a stock concentration of about 250 mM. HA hydrogels were prepared by mixing HA-hydrazine, catalyst, and HA-aldehyde stock solutions successively at hydrazine to aldehyde (molar) ratio of about 1:1. The volumes of stock solutions were adjusted to make gels with different formulations.
Rheological characterization was performed on a stress-controlled rheometer (AR-G2, TA instrument) using a 20 mm cone plate. About 45 μL of a sample was loaded immediately onto the rheometer after mixing to gel in situ on the rheometer and a humidity chamber was secured in place to prevent dehydration. All the tests were performed at about 37° C. Time sweeps were performed at about 1 Hz at about 1% constant strain. Frequency sweeps were performed from about 0.1 to about 10 Hz at about 1% constant strain. Stress relaxation experiments were performed at about 10% strain.

[3] = tested on: Human Umbilical Vein Endothelial Cells (HUVECs); assay: Catalyst toxicity, MTT cell viability assay; format: cell-based; conditions: 2D culture
Protocol: Human Umbilical Vein Endothelial Cells (HUVECs) were obtained from Lonza. HUVECs were expanded in growth medium composed of about 10% fetal bovine serum, about 1% penicillin/streptomycin in EBM-2. The medium was changed every about 3 d and the cells were passaged at about 70% confluency. Cells were used at passage 5 or lower for all experiments.
HUVECs pre-seeded in 96-well plates at about 10^4 cells/well were incubated with catalysts 1 and 2 for about 1 h, about 4 h, about 24 h and about 72 h. Afterwards, the cells were washed with PBS, the cell viability MTT assay was carried out to determine the cell viabilities relative to the control cells incubated with the same volume of PBS.

[4] = Compression test, remoldability of hydrogels; format: physicochemical; conditions: hydrogel containing about 100 mM of 1
Text: FIG. 9. Compression test showing remoldability of HA-hydrazone hydrogels was improved with the addition of a catalyst.

[5] = tested on: HUVECs encapsulated in hydrogel; assay: In vitro cell injection and quantification of viability (LIVE/DEAD); format: cell-based, Human; conditions: about 2 wt. % hydrogel with about 25 mM of 2, 28-gauge needle, about 20 min post-injection
Protocol: (§1) Evaluation was performed on the effect of catalyst 2 incorporated in HA-hydrazone hydrogels on the protection of encapsulated cells during injection. HUVECs were homogeneously encapsulated in about 2 wt. % hydrogels containing about 25 mM of 2 by rapidly mixing the cells suspended in HA solutions with catalyst and transferring to a syringe. Hydrogel was rapidly formed in the syringe and ejected through a 28-gauge syringe needle. A syringe pump was used for all cell injection experiments to ensure consistent flow rate for accurate comparison between all samples.
After injection, cells encapsulated in the hydrogels were incubated for about 20 min, and cell viability was then analyzed using a LIVE/DEAD staining assay.
Cell suspension was first mixed with HA-hydrazine stock solutions before further mixing with catalyst and HA-aldehyde stock solutions. All in vitro injection experiments were performed with about 30 μL gel volume containing about 3×10^4 cells. For cell injection, the final mixing stage was performed in the barrel of an about 1 mL insulin syringe fitted with a 28 gauge needle. […] Cell viability was determined using LIVE/DEAD viability/cytotoxicity kit (Invitrogen) at about 20 min post-injection and about 3 d post-injection (n=5). […] Cell numbers were quantified using ImageJ at each time point.

[6] = Ejection of hydrogel through 28-gauge syringe needle (injectability); format: physicochemical; conditions: about 2 wt. % hydrogel with about 25 mM of 2
Protocol: as §1

[7] = Catalyst diffusion out of hydrogel (UV absorption at about 281 nm); format: physicochemical; conditions: about 50 μL hydrogel in about 1 mL PBS
Protocol: Long-term stability of hydrogel scaffolds is often desired to provide support for cell adhesion and growth after cell injection. Rapid hydrogel erosion is a challenge for many dynamic and injectable hydrogels. It is proposed that rapid passive diffusion of the dissolved small molecule catalyst away from the hydrogel post-injection would slow down the dynamic exchange of hydrazone crosslinks and thus enhance the hydrogel stability. Therefore evaluation was performed to monitor the diffusion of 2, which was incorporated in the hydrogel at either about 25 mM or about 50 mM initial concentration, into the buffer solution after injection by monitoring its absorption at about 281 nm. After about 50 μL hydrogel was injected and immersed in about 1 mL PBS, about 60% of 2 diffused out of the hydrogel within about 1 h, and less than about 1% remained inside the gel after about 8 h (FIG. 5a). […]
(§2) HA hydrogels containing 0, about 25, and about 50 mM of catalyst 2 were prepared as described in the previous section. […] Catalyst diffusion was quantified using UV measurement by monitoring absorption at about 281 nm. HA erosion was quantified by uronic acid assay according to reported procedures.

[8] = Hydrogel erosion study (uronic acid assay); format: physicochemical
Protocol: Long-term stability of hydrogel scaffolds is often desired to provide support for cell adhesion and growth after cell injection. Rapid hydrogel erosion is a challenge for many dynamic and injectable hydrogels. It is proposed that rapid passive diffusion of the dissolved small molecule catalyst away from the hydrogel post-injection would slow down the dynamic exchange of hydrazone crosslinks and thus enhance the hydrogel stability. Therefore evaluation was performed to monitor the diffusion of 2, which was incorporated in the hydrogel at either about 25 mM or about 50 mM initial concentration, into the buffer solution after injection by monitoring its absorption at about 281 nm. After about 50 μL hydrogel was injected and immersed in about 1 mL PBS, about 60% of 2 diffused out of the hydrogel within about 1 h, and less than about 1% remained inside the gel after about 8 h (FIG. 5a). To examine whether the rapid diffusion and thus removal of catalyst can increase the long-term stability of the hydrogels, comparison is performed of the erosion rate of hydrogels with different initial concentrations of incorporated catalyst. […] Hydrogels initially containing about 25 mM or about 50 mM of catalyst 2 had erosion rates of about 3.8 and about 4.1% per day respectively, similar to those without a catalyst (FIG. 5b), presumably due to rapid diffusion of 2 out of the hydrogels. In contrast, when diffusion of 2 away from the hydrogel was prevented by immersing the hydrogel into a buffer solution containing about 25 mM of 2, the hydrogel was completely dissolved within about 12 h (FIG. 12). […]
as §2

[9] = about 2 wt. % HA hydrogel, about 25 mM of 1

Compound: NCc1nc2ccccc2[nH]1 [catalyst 1, 2-(aminomethyl)benzimidazole]
- k1, rate of hydrazone formation ([1]; 25 mM of 1): 127 M⁻¹ s⁻¹
- k−1, rate of hydrazone cleavage ([1]; 25 mM of 1): 0.00103 s⁻¹
- k1, rate of hydrazone formation ([1]; 50 mM of 1): 250 M⁻¹ s⁻¹
- k−1, rate of hydrazone cleavage ([1]; 50 mM of 1): 0.00203 s⁻¹
- k1, rate of hydrazone formation ([1]; 100 mM of 1): 495 M⁻¹ s⁻¹
- k−1, rate of hydrazone cleavage ([1]; 100 mM of 1): 0.00401 s⁻¹
- enhancement of k1 ([1]; about 25 mM of 1): about 24 fold
- enhancement of k−1 ([1]; about 25 mM of 1): about 24 fold
- enhancement of k1 ([1]; about 50 mM of 1): about 47 fold
- enhancement of k−1 ([1]; about 50 mM of 1): about 47 fold
- enhancement of k1 ([1]; about 100 mM of 1): about 94 fold
- enhancement of k−1 ([1]; about 100 mM of 1): about 94 fold
- τ1/2, time for stress to relax to half of its original value ([2]; about 25 mM of 1): about 10 min
- τ1/2, time for stress to relax to half of its original value ([2]; about 100 mM of 1): about 3 min
- final plateau shear modulus [2, 9]: about 800 Pa
- time to reach final plateau shear modulus [2, 9]: about 5 min
- gelation time ([2]; about 2 wt. % HA hydrogel, about 25 mM of 1, about 37° C.): less than 60 s
- time to reach equilibrium (gelation) ([2]; about 2 wt. % HA hydrogel, about 100 mM of 1): about 3 min
- HUVEC cell death ([3]; about 25 mM, within several hours): Significant cell death
- remoldability after pressing from about 2.4 mm to about 0.6 mm for about 5 min [4]: adopted the height of the mold

Compound: NCc1nc2ccccc2n1CCCS(=O)(=O)O [catalyst 2]
- HUVEC cell death ([3]; about 5 mM, after about 3 days): negligible cell death
- cells remaining viable ([3]; about 25 mM, about 24 h exposure): about 85%
- cell viability after injection [5]: about 87%
- injectability through 28-gauge needle [6]: readily ejected through the thin needle without clogging
- fraction of catalyst remaining inside the gel ([7]; after about 8 h): less than 1%
- fraction of catalyst diffused out of the hydrogel ([7]; within about 1 h, about 25 or 50 mM initial): about 60%
- time to complete dissolution of hydrogel ([8]; hydrogel immersed in buffer containing about 25 mM of 2 (diffusion prevented)): ≤ 12 h
- erosion rate ([8]; hydrogel initially containing about 25 mM of catalyst 2): about 3.8 % per day
- erosion rate ([8]; hydrogel initially containing about 50 mM of catalyst 2): about 4.1 % per day
